{"source": "patent US8372598B2", "about": "(priority 2010, dated 2013)", "key": {"parent": {"test_system": "parent", "settings": "OD600, parent"}, "[1]": {"test_system": "mutants of Co-9064 selected as in Example 1", "settings": "grown at increasing concentrations of butanol, FIGS. 2A and 2B"}, "strain Co-9064": {"test_system": "strain Co-9064", "experiment": "MIC for NaCl", "assay_type": "cell-based, Clostridium species", "settings": "NaCl MIC determination"}, "[2]": {"test_system": "mutants of Co-9064 selected as in Example 1", "experiment": "Salt MIC / growth on NaCl plates, salt selection mutants as a group", "assay_type": "cell-based, Clostridium"}, "mutant 10256": {"test_system": "mutant 10256", "experiment": "Growth on agar plates with varying NaCl", "assay_type": "cell-based, Clostridium", "settings": "for CFU/ml: 48 hours"}, "mutant 11303": {"test_system": "mutant 11303", "experiment": "Growth on agar plates with varying NaCl", "assay_type": "cell-based, Clostridium", "settings": "for CFU/ml: 48 hours"}, "[3]": {"test_system": "parent Clostridium strain", "experiment": "Growth on agar plates with varying NaCl", "assay_type": "cell-based", "settings": "for CFU/ml: 48 hours"}, "strain Co-1533": {"test_system": "strain Co-1533", "experiment": "MIC for NaCl", "assay_type": "cell-based, Clostridium species", "settings": "NaCl MIC determination"}, "mutant 11301": {"test_system": "mutant 11301", "experiment": "Growth on agar plates with varying NaCl", "assay_type": "cell-based, Clostridium", "settings": "for CFU/ml: 48 hours"}, "strain Co-6232": {"test_system": "strain Co-6232", "experiment": "MIC for NaCl", "assay_type": "cell-based, Clostridium species", "settings": "NaCl MIC determination"}, "mutant 10277": {"test_system": "mutant 10277", "experiment": "Growth on agar plates with varying NaCl", "assay_type": "cell-based, Clostridium", "settings": "for CFU/ml: 48 hours"}, "Co-2164": {"test_system": "Co-2164", "experiment": "microbe, parasite or virus in culture", "assay_type": "cell-based, Clostridium"}, "Co-5673": {"test_system": "Co-5673", "experiment": "microbe, parasite or virus in culture", "assay_type": "cell-based, Clostridium"}, "[4]": {"settings": "Clostridium, 40 min, read-out: Survival (% of control)"}}}
{"molecule": "n-butanol", "values": [{"measurement": "% improvement", "setting": "mutant #1", "result": 20.89, "unit": "%"}, {"measurement": "% of added n-butanol (v/v) at 50% inhibition", "setting": "mutant #1", "result": "1.18 % (v/v)"}, {"measurement": "% of added n-butanol (v/v) at 50% inhibition", "setting": "parent", "result": "0.98 % (v/v)"}, {"measurement": "% improvement", "setting": "mutant #2", "result": 69.96, "unit": "%"}, {"measurement": "% of added n-butanol (v/v) at 50% inhibition", "setting": "mutant #2", "result": "1.66 % (v/v)"}, {"measurement": "butanol tolerance compared to the parent strain", "setting": "[1]", "result": "improved butanol tolerance"}]}
{"molecule": "[Cl-].[Na+]", "note": "[NaCl, sodium chloride]", "values": [{"measurement": "highest concentration at which growth was observed", "setting": "strain Co-9064", "result": 300, "unit": "mM"}, {"measurement": "increase of salt tolerance (salt MIC) compared to the parent strain", "setting": "[2]; mutants versus parent", "result": "more than 100 mM"}, {"measurement": "growth up to", "setting": "[2]; solid medium, four of the mutants", "result": 450, "unit": "mM"}, {"measurement": "CFU/ml", "setting": "mutant 10256; NaCl 350 mM", "result": "lawn"}, {"measurement": "CFU/ml", "setting": "mutant 10256; NaCl 400 mM", "result": "lawn"}, {"measurement": "CFU/ml", "setting": "mutant 10256; NaCl 425 mM", "result": 480, "unit": "CFU/ml"}, {"measurement": "CFU/ml", "setting": "mutant 10256; NaCl 450 mM", "result": 20, "unit": "CFU/ml"}, {"measurement": "CFU/ml", "setting": "mutant 10256; NaCl 475 mM", "result": 0, "unit": "CFU/ml"}, {"measurement": "grew on plates containing up to", "setting": "mutant 10256; NaCl plates, mutant 10256", "result": 450, "unit": "mM"}, {"measurement": "CFU/ml", "setting": "mutant 11303; NaCl 350 mM", "result": "lawn"}, {"measurement": "CFU/ml", "setting": "mutant 11303; NaCl 400 mM", "result": "lawn"}, {"measurement": "CFU/ml", "setting": "mutant 11303; NaCl 425 mM", "result": 800, "unit": "CFU/ml"}, {"measurement": "CFU/ml", "setting": "mutant 11303; NaCl 450 mM", "result": 10, "unit": "CFU/ml"}, {"measurement": "CFU/ml", "setting": "mutant 11303; NaCl 475 mM", "result": 0, "unit": "CFU/ml"}, {"measurement": "grew on plates containing up to", "setting": "mutant 11303; NaCl plates, mutant 11303", "result": 450, "unit": "mM"}, {"measurement": "CFU/ml", "setting": "[3]; NaCl 350 mM", "result": 6000, "unit": "CFU/ml"}, {"measurement": "CFU/ml", "setting": "[3]; NaCl 400 mM", "result": 0, "unit": "CFU/ml"}, {"measurement": "CFU/ml", "setting": "[3]; NaCl 425 mM", "result": 0, "unit": "CFU/ml"}, {"measurement": "CFU/ml", "setting": "[3]; NaCl 450 mM", "result": 0, "unit": "CFU/ml"}, {"measurement": "CFU/ml", "setting": "[3]; NaCl 475 mM", "result": 0, "unit": "CFU/ml"}, {"measurement": "grew on plates containing up to", "setting": "[3]; NaCl plates, parent strain", "result": 325, "unit": "mM"}, {"measurement": "no growth at this NaCl concentration and higher", "setting": "[3]; solid medium, parent", "result": "≥ 400", "unit": "mM"}, {"measurement": "highest concentration at which growth was observed", "setting": "strain Co-1533", "result": 275, "unit": "mM"}, {"measurement": "CFU/ml", "setting": "mutant 11301; NaCl 350 mM", "result": "lawn"}, {"measurement": "CFU/ml", "setting": "mutant 11301; NaCl 400 mM", "result": "lawn"}, {"measurement": "CFU/ml", "setting": "mutant 11301; NaCl 425 mM", "result": 220, "unit": "CFU/ml"}, {"measurement": "CFU/ml", "setting": "mutant 11301; NaCl 450 mM", "result": 30, "unit": "CFU/ml"}, {"measurement": "CFU/ml", "setting": "mutant 11301; NaCl 475 mM", "result": 0, "unit": "CFU/ml"}, {"measurement": "grew on plates containing up to", "setting": "mutant 11301; NaCl plates, mutant 11301", "result": 450, "unit": "mM"}, {"measurement": "highest concentration of salt at which growth was observed", "setting": "strain Co-6232", "result": 325, "unit": "mM"}, {"measurement": "CFU/ml", "setting": "mutant 10277; NaCl 350 mM", "result": "lawn"}, {"measurement": "CFU/ml", "setting": "mutant 10277; NaCl 400 mM", "result": "lawn"}, {"measurement": "CFU/ml", "setting": "mutant 10277; NaCl 425 mM", "result": 2930, "unit": "CFU/ml"}, {"measurement": "CFU/ml", "setting": "mutant 10277; NaCl 450 mM", "result": 150, "unit": "CFU/ml"}, {"measurement": "CFU/ml", "setting": "mutant 10277; NaCl 475 mM", "result": 0, "unit": "CFU/ml"}, {"measurement": "grew on plates containing up to", "setting": "mutant 10277; NaCl plates, mutant 10277", "result": 450, "unit": "mM"}]}
{"molecule": "CCOS(C)(=O)=O", "note": "[EMS, ethyl methane sulfonate]", "values": [{"measurement": "Survival (count)", "setting": "Co-2164", "result": "5.8 × 10^6 (14%)"}, {"measurement": "higher survival rate in comparison to Co-5673", "setting": "Co-2164", "result": 10, "unit": "%"}, {"measurement": "activity at 30 µg/mL", "setting": "Co-2164; [4]", "result": 14, "unit": "%"}, {"measurement": "Survival (count)", "setting": "Co-5673; 30 μg/ml EMS, 40 minutes, 32° C., Co-5673", "result": "3.8 × 10^6"}, {"measurement": "activity at 30 µg/mL", "setting": "Co-5673; [4]", "result": 4, "unit": "%"}]}
